{
  "source": "paper PMC4990177",
  "about": "“ABCB1 Overexpression Is a Key Initiator of Resistance to Tyrosine Kinase Inhibitors in CML Cell Lines” (PLoS ONE, 2016)",
  "key": {"[1]": {"tested_on": "K562 cells", "assay": "% live cells during nilotinib dose escalation, K562 resistance intermediates", "type": "cell-based"}, "[2]": {"tested_on": "K562 cells", "assay": "Cell viability assay, Annexin V/7-AAD, 72 h, K562 cells", "experimental": "(§1) Cells were washed and resuspended in fresh culture media before culture in 24-well plates (Thermo Fisher Scientific, Waltham, MA, USA) in the presence of TKI at a density of 2×10^5 cells/mL. Plates were seeded with 1 mL of cell suspension in triplicate, placed in sterilised containers and incubated for 72 h before cell viability determination with 7-aminoactinomycin D (7-AAD; Invitrogen Life Technologies, Carlsbad, CA, USA) and Phycoerythrin (PE)-conjugated Annexin V antibody (BD Biosciences, Franklin Lakes, NJ, USA). Flow cytometric analysis was conducted with an FC500 flow cytometer (Beckman Coulter, Miami, FL, USA) and FCS Express 4 software (De Novo Software, Los Angeles, CA, USA).\nError bars represent SEM."}, "[3]": {"tested_on": "K562-Dox cells", "assay": "Cell viability assay, Annexin V/7-AAD, 72 h, K562-Dox cells", "experimental": "as §1\nError bars represent SEM."}, "[4]": {"tested_on": "LYN mRNA", "assay": "LYN mRNA expression by RQ-PCR in nilotinib resistant K562 cells", "type": "cell-based", "conditions": "K562 #6 NIL cells and later intermediates, duration of nilotinib escalation"}, "[5]": {"tested_on": "K562-Dox cells", "assay": "% live cells during nilotinib dose escalation, K562-Dox resistance intermediates", "type": "cell-based"}},
  "data": [
    {"smiles": "Cc1cn(-c2cc(NC(=O)c3ccc(C)c(Nc4nccc(-c5cccnc5)n4)c3)cc(C(F)(F)F)c2)cn1", "note": "[nilotinib]", "values": [
      {"measurement": "% Live Cells", "setting": "[1]; K562 intermediate #1, cultured in 15 nM NIL, 10 days in culture", "value": 95.0, "unit": "%"},
      {"measurement": "% Live Cells", "setting": "[1]; K562 intermediate #2, cultured in 25 nM NIL, 11 days in culture", "value": 99.1, "unit": "%"},
      {"measurement": "% Live Cells", "setting": "[1]; K562 intermediate #3, cultured in 50 nM NIL, 10 days in culture", "value": 96.7, "unit": "%"},
      {"measurement": "% Live Cells", "setting": "[1]; K562 intermediate #4, cultured in 75 nM NIL, 14 days in culture", "value": 93.7, "unit": "%"},
      {"measurement": "% Live Cells", "setting": "[1]; K562 intermediate #5, cultured in 100 nM NIL, 12 days in culture", "value": 94.6, "unit": "%"},
      {"measurement": "% Live Cells", "setting": "[1]; K562 intermediate #6, cultured in 125 nM NIL, 28 days in culture (prolonged exposure)", "value": "~ 80%"},
      {"measurement": "% Live Cells", "setting": "[1]; K562 intermediate #6, cultured in 125 nM NIL, 28 days in culture (prolonged exposure), listed as NIL", "value": 83.6, "unit": "%"},
      {"measurement": "% Live Cells", "setting": "[1]; K562 intermediate #7, cultured in 140 nM NIL, 17 days in culture", "value": 87.4, "unit": "%"},
      {"measurement": "% Live Cells", "setting": "[1]; K562 intermediate #8, cultured in 300 nM NIL, 12 days in culture", "value": 93.3, "unit": "%"},
      {"measurement": "% Live Cells", "setting": "[1]; K562 intermediate #9, cultured in 400 nM NIL, 14 days in culture", "value": 90.8, "unit": "%"},
      {"measurement": "% Live Cells", "setting": "[1]; K562 intermediate #10, cultured in 2 μM NIL, continuous culture", "value": 94.1, "unit": "%"},
      {"measurement": "survival (% live cells)", "setting": "[2]; K562 #6 NIL cells, 1000 nM nilotinib", "value": 87, "unit": "%"},
      {"measurement": "survival (% live cells)", "setting": "[2]; K562 #10 NIL cells, 1000 nM nilotinib", "value": 85, "unit": "%"},
      {"measurement": "survival (% live cells)", "setting": "[2]; K562 control cells, 1000 nM nilotinib", "value": 19, "unit": "%"},
      {"measurement": "survival (% live cells)", "setting": "[3]; K562-Dox #5 NIL cells, 1000 nM nilotinib", "value": 74, "unit": "%"},
      {"measurement": "survival (% live cells)", "setting": "[3]; K562-Dox control cells, 1000 nM nilotinib", "value": 8, "unit": "%"},
      {"measurement": "LYN mRNA increase compared with control cells", "setting": "[4]", "value": "15–18 fold"},
      {"measurement": "% Live Cells", "setting": "[5]; K562-Dox intermediate #1, cultured in 15 nM NIL, 11 days in culture", "value": 99.6, "unit": "%"},
      {"measurement": "% Live Cells", "setting": "[5]; K562-Dox intermediate #2, cultured in 30 nM NIL, 10 days in culture", "value": 96.9, "unit": "%"},
      {"measurement": "% Live Cells", "setting": "[5]; K562-Dox intermediate #3, cultured in 60 nM NIL, 11 days in culture", "value": 98.5, "unit": "%"},
      {"measurement": "% Live Cells", "setting": "[5]; K562-Dox intermediate #4, cultured in 100nM NIL, 12 days in culture", "value": 91.3, "unit": "%"},
      {"measurement": "% Live Cells", "setting": "[5]; K562-Dox intermediate #5, cultured in 125 nM NIL, 81 days in culture", "value": 73.6, "unit": "%"},
      {"measurement": "% Live Cells", "setting": "[5]; K562-Dox intermediate #6, cultured in 200 nM NIL, 16 days in culture", "value": 76.6, "unit": "%"},
      {"measurement": "% Live Cells", "setting": "[5]; K562-Dox intermediate #7, cultured in 1 μM NIL, 19 days in culture", "value": 75.8, "unit": "%"},
      {"measurement": "% Live Cells", "setting": "[5]; K562-Dox intermediate #8, cultured in 2 μM NIL, continuous culture", "value": 90.7, "unit": "%"}
    ]},
    {"smiles": "Cc1nc(Nc2ncc(C(=O)Nc3c(C)cccc3Cl)s2)cc(N2CCN(CCO)CC2)n1", "note": "[dasatinib]", "values": [
      {"measurement": "survival (% live cells)", "setting": "[2]; K562 #6 NIL cells, 500 nM dasatinib", "value": 74, "unit": "%"},
      {"measurement": "survival (% live cells)", "setting": "[2]; K562 #10 NIL cells, 500 nM dasatinib", "value": 74, "unit": "%"},
      {"measurement": "survival (% live cells)", "setting": "[2]; K562 control cells, 500 nM dasatinib", "value": 21, "unit": "%"},
      {"measurement": "survival (% live cells)", "setting": "[3]; K562-Dox #5 NIL cells, 100 nM dasatinib", "value": 60, "unit": "%"},
      {"measurement": "survival (% live cells)", "setting": "[3]; K562-Dox control cells, 100 nM dasatinib", "value": 5, "unit": "%"}
    ]},
    {"smiles": "Cc1ccc(NC(=O)c2ccc(CN3CCN(C)CC3)cc2)cc1Nc1nccc(-c2cccnc2)n1", "note": "[imatinib]", "values": [
      {"measurement": "survival (% live cells)", "setting": "[2]; K562 #6 NIL cells, 5 μM imatinib", "value": 92, "unit": "%"},
      {"measurement": "survival (% live cells)", "setting": "[2]; K562 #10 NIL cells, 5 μM imatinib", "value": 89, "unit": "%"},
      {"measurement": "survival (% live cells)", "setting": "[2]; K562 control cells, 5 μM imatinib", "value": 29, "unit": "%"},
      {"measurement": "survival (% live cells)", "setting": "[3]; K562-Dox #5 NIL cells, 5 μM imatinib", "value": 79, "unit": "%"},
      {"measurement": "survival (% live cells)", "setting": "[3]; K562-Dox control cells, 5 μM imatinib", "value": 31, "unit": "%"}
    ]}
  ]
}
